In brackets after ≈: the same amount, converted by molar mass.
What was measured:
Escherichia coli [1] = test: Antimicrobial activity against TEM-1 beta-lactamase producing Escherichia coli GC 6265 infected in CD-1 mouse treated 30 mins postinfection in presence of 6:1 ratio of compound to beta-lactamase inhibitor BLI-489; type: functional; conditions: GC 6265, 0.5 h
Escherichia coli [2] = test: Antimicrobial activity against OXA-1 beta-lactamase producing Escherichia coli GAR 5946 by broth microdilution method; type: functional
Escherichia coli [3] = test: Antimicrobial activity against TEM-10 beta-lactamase producing Escherichia coli GC 2022 infected in CD-1 mouse treated 30 mins postinfection; type: functional; conditions: GC 2022, 0.5 h
Klebsiella pneumoniae [4] = test: Antimicrobial activity against SHV-1and SHV-5 beta-lactamase producing Klebsiella pneumoniae GAR 7978 by broth microdilution method in presence of beta-lactamase inhibitor Tazobactam; type: functional
Escherichia coli [5] = test: Antimicrobial activity against TEM-10 beta-lactamase producing Escherichia coli GC 2022 by broth microdilution method in presence of 8:1 ratio of compound to beta-lactamase inhibitor BLI-489; type: functional
Escherichia coli [6] = test: Antimicrobial activity against TEM-1 beta-lactamase producing Escherichia coli GC 6265 infected in CD-1 mouse treated 30 mins postinfection in presence of 2:1 ratio of compound to beta-lactamase inhibitor BLI-489; type: functional; conditions: GC 6265, 0.5 h
Klebsiella pneumoniae [7] = test: Antimicrobial activity against SHV-11 beta-lactamase producing Klebsiella pneumoniae GAR 7693 by broth microdilution method in presence of 8:1 ratio of compound to beta-lactamase inhibitor BLI-489; type: functional
Staphylococcus aureus [8] = test: Antimicrobial activity against penicillinase producing Staphylococcus aureus GC 6468 infected in CD-1 mouse treated 30 and 150 mins postinfection in presence of 8:1 ratio of compound to beta-lactamase inhibitor BLI-489; type: functional
Klebsiella pneumoniae [9] = test: Antimicrobial activity against SHV-11beta-lactamase producing Klebsiella pneumoniae GAR 7693 infected in CD-1 mouse treated 30 and 150 mins postinfection in presence of 8:1 ratio of compound to beta-lactamase inhibitor BLI-489; type: functional
Staphylococcus aureus [10] = test: Antimicrobial activity against penicillinase producing Staphylococcus aureus GC 6468 by broth microdilution method; type: functional
Klebsiella pneumoniae [11] = test: Antimicrobial activity against SHV-11 beta-lactamase producing Klebsiella pneumoniae GAR 7693 infected in CD-1 mouse treated 30 and 150 mins postinfection; type: functional
Escherichia coli [12] = test: Antimicrobial activity against ACT-1 beta-lactamase producing Escherichia coli GC 2814 infected in CD-1 mouse treated 30 and 150 mins postinfection in presence of 8:1 ratio of compound to beta-lactamase inhibitor BLI-489; type: functional
Escherichia coli [13] = test: Antimicrobial activity against TEM-1 beta-lactamase producing Escherichia coli GC 6265 infected in CD-1 mouse treated 30 mins postinfection; type: functional; conditions: GC 6265, 0.5 h
Escherichia coli [14] = test: Antimicrobial activity against TEM-1 beta-lactamase producing Escherichia coli GC 6265 infected in CD-1 mouse treated 30 mins postinfection in presence of 8:1 ratio of compound to beta-lactamase inhibitor BLI-489; type: functional; conditions: GC 6265, 0.5 h
Escherichia coli [15] = test: Antimicrobial activity against TEM-10 beta-lactamase producing Escherichia coli GC 2022 by broth microdilution method; type: functional
Escherichia coli [16] = test: Antimicrobial activity against ACT-1 beta-lactamase producing Escherichia coli GC 2814 infected in CD-1 mouse treated 30 and 150 mins postinfection; type: functional
Escherichia coli [17] = test: Antimicrobial activity against TEM-1 beta-lactamase producing Escherichia coli GC 6265 by broth microdilution method in presence of 8:1 ratio of compound to beta-lactamase inhibitor BLI-489; type: functional
Salmonella typhimurium [18] = test: Antimicrobial activity against CTX-M-5 beta-lactamase producing Salmonella enterica serovar Typhimurium GC 4195 infected in CD-1 mouse treated 30 and 150 mins postinfection; type: functional, Salmonella enterica subsp. enterica serovar Typhimurium
Staphylococcus aureus [19] = test: Antimicrobial activity against penicillinase producing Staphylococcus aureus GC 6468 by broth microdilution method in presence of 8:1 ratio of compound to beta-lactamase inhibitor BLI-489; type: functional
Pseudomonas aeruginosa [20] = test: Antimicrobial activity against AmpC beta-lactamase producing Pseudomonas aeruginosa GC 1764 infected in CD-1 mouse treated 30 and 150 mins postinfection in presence of 8:1 ratio of compound to beta-lactamase inhibitor BLI-489; type: functional
Enterobacter cloacae [21] = test: Antimicrobial activity against AmpC beta-lactamase producing Enterobacter cloacae GC 4142 infected in CD-1 mouse treated 30 and 150 min postinfection in presence of 12:1 ratio of compound to beta-lactamase inhibitor BLI-489; type: functional
Salmonella typhimurium [22] = test: Antimicrobial activity against CTX-M-5 beta-lactamase producing Salmonella enterica serovar Typhimurium GC 4195 by broth microdilution method in presence of 8:1 ratio of compound to beta-lactamase inhibitor BLI-489; type: functional, Salmonella enterica subsp. enterica serovar Typhimurium
Pseudomonas aeruginosa [23] = test: Antimicrobial activity against AmpC beta-lactamase producing Pseudomonas aeruginosa GC 1764 by broth microdilution method in presence of beta-lactamase inhibitor Tazobactam; type: functional
Enterobacter cloacae [24] = test: Antimicrobial activity against AmpC beta-lactamase producing Enterobacter cloacae GC 4142 infected in CD-1 mouse treated 30 and 150 min postinfection in presence of 2:1 ratio of compound to beta-lactamase inhibitor BLI-489; type: functional
Escherichia coli [25] = test: Antimicrobial activity against OXA-1 beta-lactamase producing Escherichia coli GAR 5946 infected in CD-1 mouse treated 30 and 150 mins postinfection in presence of 8:1 ratio of compound to beta-lactamase inhibitor BLI-489; type: functional
Enterobacter cloacae [26] = test: Antimicrobial activity against AmpC beta-lactamase producing Enterobacter cloacae GC 4142 infected in CD-1 mouse treated 30 and 150 min postinfection; type: functional
Staphylococcus aureus [27] = test: Antimicrobial activity against penicillinase producing Staphylococcus aureus GC 6468 by broth microdilution method in presence of beta-lactamase inhibitor Tazobactam; type: functional
Escherichia coli [28] = test: Antimicrobial activity against TEM-10 beta-lactamase producing Escherichia coli GC 2022 infected in CD-1 mouse treated 30 mins postinfection in presence of beta-lactamase inhibitor Tazobactam; type: functional; conditions: GC 2022, 0.5 h
Escherichia coli [29] = test: Antimicrobial activity against ACT-1 beta-lactamase producing Escherichia coli GC 2814 by broth microdilution method; type: functional
Pseudomonas aeruginosa [30] = test: Antimicrobial activity against AmpC beta-lactamase producing Pseudomonas aeruginosa GC 1764 infected in CD-1 mouse treated 30 and 150 mins postinfection; type: functional
Escherichia coli [31] = test: Antimicrobial activity against TEM-1 beta-lactamase producing Escherichia coli GC 6265 infected in CD-1 mouse treated 30 mins postinfection in presence of 10:1 ratio of compound to beta-lactamase inhibitor BLI-489; type: functional; conditions: GC 6265, 0.5 h
Escherichia coli [32] = test: Antimicrobial activity against ACT-1 beta-lactamase producing Escherichia coli GC 2814 by broth microdilution method in presence of 8:1 ratio of compound to beta-lactamase inhibitor BLI-489; type: functional
Klebsiella pneumoniae [33] = test: Antimicrobial activity against SHV-1and SHV-5 beta-lactamase producing Klebsiella pneumoniae GAR 7978 infected in CD-1 mouse treated 30 and 150 mins postinfection; type: functional
Escherichia coli [34] = test: Antimicrobial activity against TEM-1 beta-lactamase producing Escherichia coli GC 6265 infected in CD-1 mouse treated 30 mins postinfection in presence of 12:1 ratio of compound to beta-lactamase inhibitor BLI-489; type: functional; conditions: GC 6265, 0.5 h
Staphylococcus aureus [35] = test: Antimicrobial activity against penicillinase producing Staphylococcus aureus GC 6468 infected in CD-1 mouse treated 30 and 150 mins postinfection in presence of beta-lactamase inhibitor Tazobactam; type: functional
Salmonella typhimurium [36] = test: Antimicrobial activity against CTX-M-5 beta-lactamase producing Salmonella enterica serovar Typhimurium GC 4195 by broth microdilution method in presence of beta-lactamase inhibitor Tazobactam; type: functional, Salmonella enterica subsp. enterica serovar Typhimurium

## CCN1CCN(C(=O)N[C@@H](C(=O)N[C@@H]2C(=O)N3[C@@H]2SC(C)(C)[C@@H]3C(=O)O)c2ccccc2)C(=O)C1=O [PIPERACILLIN]
Escherichia coli [1]
  ED50: 12 mg/kg
Escherichia coli [2]
  MIC: 2 µg/mL (≈ 3.86 µM)
Escherichia coli [3]
  ED50: 301 mg/kg
Klebsiella pneumoniae [4]
  MIC: > 64 µg/mL
Escherichia coli [5]
  MIC: > 64 µg/mL
Escherichia coli [6]
  ED50: 8.5 mg/kg
Klebsiella pneumoniae [7]
  MIC: > 64 µg/mL
Staphylococcus aureus [8]
  ED50: 12 mg/kg
Klebsiella pneumoniae [9]
  ED50: 23 mg/kg
Staphylococcus aureus [10]
  MIC: > 64 µg/mL
Klebsiella pneumoniae [11]
  ED50: 193 mg/kg
Escherichia coli [12]
  ED50: 13 mg/kg
Escherichia coli [13]
  ED50: 176 mg/kg
Escherichia coli [14]
  ED50: 12 mg/kg
Escherichia coli [15]
  MIC: 1 µg/mL (≈ 1.93 µM)
Escherichia coli [16]
  ED50: 103 mg/kg
Escherichia coli [17]
  MIC: 4 µg/mL
Salmonella typhimurium [18]
  ED50: 1120 mg/kg
Staphylococcus aureus [19]
  MIC: 1 µg/mL
Pseudomonas aeruginosa [20]
  ED50: 103 mg/kg
Enterobacter cloacae [21]
  ED50: 60 mg/kg
Salmonella typhimurium [22]
  MIC: > 64 µg/mL
Pseudomonas aeruginosa [23]
  MIC: 32 µg/mL
Enterobacter cloacae [24]
  ED50: 31 mg/kg
Escherichia coli [25]
  ED50: 86 mg/kg
Enterobacter cloacae [26]
  ED50: 282 mg/kg
Staphylococcus aureus [27]
  MIC: 1 µg/mL
Escherichia coli [28]
  ED50: 25 mg/kg
Escherichia coli [29]
  MIC: 2 µg/mL (≈ 3.86 µM)
Pseudomonas aeruginosa [30]
  ED50: 980 mg/kg
Escherichia coli [31]
  ED50: 12 mg/kg
Escherichia coli [32]
  MIC: > 64 µg/mL
Klebsiella pneumoniae [33]
  ED50: 245 mg/kg
Escherichia coli [34]
  ED50: 11 mg/kg
Staphylococcus aureus [35]
  ED50: 16 mg/kg
Salmonella typhimurium [36]
  MIC: > 64 µg/mL

Reference: ChEMBL document CHEMBL1671652, “Efficacy of piperacillin combined with the Penem beta-lactamase inhibitor BLI-489 in murine models of systemic infection” (2009)
